# Reference: US20060045880A1 (priority 2004, published 2006)
# Experiments:
# [1] = tested on: APJ transcript; experiment: Antisense morpholino loss-of-function in frog embryos (APJ); format: in vivo, Xenopus laevis
# Experimental: One antisense morpholino oligonucleotide, designed to block translation from both copies of the APJ transcript, was targeted immediately upstream of the initiation ATG: apj 5′-[…]-3′ (SEQ ID NO:9).
# The 5 base pair mismatch control sequence for the apj morpholino oligonucleotide (apjmm) is: apjmm 5′-AAGcCTcTGTGcAAcCAATAcAAAG-3′ (SEQ ID NO:10); the mismatch bases indicated in lowercase.
# (§1) Morpholino oligonucleotides were reconstituted in 50 mM HEPES buffer (pH 8.0) and injected into the frog embryo. The ap1 MO was injected at 15 ng per embryo, and the ap2 and apj MOs were injected at 7.5 ng. Mismatch controls, ap2 mm and apjmm, were used at twice the experimental dose (15 ng). The MOs were injected into one cell of a 2 cell embryo together with Texas Red Dextran (10 ng; Molecular Probes) as a lineage tracer. Embryos were grown to stage 35 when they were assayed by in situ hybridization using the vascular marker, erg.
# [2] = tested on: apelin transcript; experiment: Antisense morpholino loss-of-function in frog embryos (apelin); format: in vivo, Xenopus laevis
# Experimental: Loss-of-function experiments were performed using antisense morpholino oligonucleotides (MOs) (Gene Tools, Philomath, Oreg.), and the results are shown in FIG. 9. All morpholino oligonucleotides were designed based on recommendations from Gene Tools.
# as §1
# [3] = tested on: apelin expression; experiment: Apelin expression in cardiac myocytes under cobalt chloride (hypoxia mimic), PCR; format: cell-based, rat
# Experimental: Preliminary experiments were carried out using primary rat cardiomyocyte cells in culture and treatment with cobalt chloride. This procedure is accepted as an equivalent to culturing cells under hypoxic conditions because HIF-1α is a metal responsive transcription protein (Ladoux and Frelin, 1994; Piret et al., 2002; Maxwell and Salnikow, 2004). Fetal rat cardiac myocytes were plated and cultured in DMEM (Invitrogen, Carlsbad, Calif.) supplemented with 10% fetal calf serum and penicillin/streptomyocin at 37° C. After four days of culture, medium was removed, and cells were treated with fresh media containing 150 μM Cobalt Chloride (Piret et al., 2002). […] After 4 hours of culture, cells were harvested, and total RNA was extracted using the Trizol procedure according to the manufacturers recommendations (Invitrogen, Carlsbad, Calif.).
# Following PCR, amplification products were fractionated on an agarose gel and visualized using ethidium bromide staining under ultraviolet light (FIG. 12).
# The myocytes were grown in the presence of Cobalt chloride (30 μg/ml). A control known to be non-responsive to hypoxic conditions was used (β-actin), as well as two positive controls which are known to be responsive to hypoxic conditions (VEGF and GLUTI).
# [4] = tested on: BAE/APJ#2 cells; experiment: BAE/APJ#2 cell proliferation, BrdU incorporation; format: cell-based, bovine; set-up: effect on VEGF-mediated proliferation: dose or concentration left out as unconfirmed
# Experimental: (§2) Bovine aortic endothelial cells (BAE) were cultured in DMEM supplemented with 10% fetal bovine serum (FBS) and penicillin/streptomycin. For generation of stable cell lines expressing APJ, the mouse APJ coding region was cloned into the pcDNA 3.1 vector downstream of the CMV promoter, in frame with a myc epitope at the C-terminal end of the protein, and upstream of the neomycin gene. Bovine aortic endothelial (BAE) cells were transfected with this construction using the Superfect transfection kit (Qiagen) and selected for resistance to G418 (600 μg/ml). Colonies were isolated and screened using RT-PCR for expression of mouse APJ and also by immunocytochemistry for expression of the myc epitope.
# [5] = tested on: mouse endothelial cells (bEnd3); experiment: bEnd3 cell proliferation, BrdU incorporation; format: cell-based
# Experimental: Similar cellular proliferation assays were performed using mouse endothelial cells (bEnd3) that constitutively express APJ. […] SU1498 was included in proliferation cultures at a 25 μM concentration, and results were assayed using BrdU incorporation.
# Proliferation inhibition experiments with the bEnd3 cells also were carried out using FGF (50 ng/ml) or the FGF pathway inhibitor SU5402 (FIG. 19). SU5402 was included in proliferation cultures at a 20 μM concentration, and results were assayed using BrdU incorporation.
# [6] = tested on: BAE/APJ#2 cells; conditions: 10 ng/ml in bottom chamber, 16 hours
# Experimental: as §2
# Cell migration assays were performed using Transwell cell culture migration chambers (Becton Dickinson) with 8 micron pore size. BAE/APJ#2 cells were plated in serum free conditions in 100 μl at a concentration of 1×10^5 ml in the upper chamber of the migration chamber. Following cell attachment to the membrane, 10 ng/ml of growth factor was added to the bottom chamber, in a total volume of 0.5 ml. […] Cells attached to the membrane in the lower chamber were stained with DAPI, and 3 random fields were counted for each experimental condition.
molecule,measurement,setting,value
5′-AAGGCTGTGTGGAAGCAATAGAAAG-3′ (all phosphorodiamidate morpholino (PMO)) [antisense morpholino to the APJ receptor],embryos with decrease in angiogenic growth of blood vessels,"[1]; 7.5 ng, N=48, stage 35",71 % of the embryos
5′-AAGcCTcTGTGcAAcCAATAcAAAG-3′ (antisense AAGCCTCTGTGCAACCAATACAAAG; all phosphorodiamidate morpholino (PMO)) [apjmm],alteration in the vascular growth of the embryos,"[1]; mismatch control, 15 ng",did not produce a detectable alteration
5′-GATTCATGTTTCTTGTGGCTGAGTG-3′ (all phosphorodiamidate morpholino (PMO)) [ap2],embryos with loss of intersomitic vessel formation,"[2]; 7.5 ng, N=64, stage 35",63 % of the embryos
5′-GATTgATcTTTgTTGTGcCTcAGTG-3′ (antisense GATTGATCTTTGTTGTGCCTCAGTG; all phosphorodiamidate morpholino (PMO)) [ap2 mm],alteration in the vascular growth of the embryos,"[2]; mismatch control, 15 ng",did not produce a detectable alteration
5′-GTGCCCAAAGTCTGAGATTCATGTT-3′ (all phosphorodiamidate morpholino (PMO)) [ap1],embryos with inhibition of angiogenic growth of embryonic blood vessels,"[2]; 15 ng per embryo, N=76, stage 35",67 % of the embryos
[Cl][Co][Cl] [Cobalt Chloride],apelin expression (PCR),"[3]; 150 μM Cobalt Chloride, 4 hours, fetal rat cardiac myocytes",significantly increased
same,apelin expression,"[3]; Cobalt chloride 30 μg/ml, rat cardiac myocytes",induced
CC(C)c1cc(/C=C(\C#N)C(=O)NCCCc2ccccc2)cc(C(C)C)c1O [SU1498],effect on VEGF-mediated proliferation,[4]; SU1498,partially inhibits
same,effect on apelin-mediated proliferation,[4]; SU1498 10 ng/ml,no significant effect
same,effect on VEGF-mediated proliferation,"[5]; bEnd3, SU1498 25 μM, VEGF 50 ng/ml",partially inhibits
same,effect on apelin-mediated proliferation,"[5]; bEnd3, SU1498 25 μM, apelin 10 ng/ml",no significant effect
Cc1c[nH]c(/C=C2\C(=O)Nc3ccccc32)c1CCC(=O)O [SU5402],effect on the proliferative effect of FGF,"[5]; bEnd3, SU5402 20 μM, FGF 50 ng/ml",partially inhibited
same,effect on apelin-stimulated cellular proliferation,"[5]; bEnd3, SU5402 20 μM, apelin 10 ng/ml",did not have a significant effect
VEGF,endothelial cell migration (cells per field),[6],increase in migration
same,cellular proliferation of endothelial cells,"[5]; bEnd3, apelin 10 ng/ml, VEGF 50 ng/ml, FIG. 17 0.1 ng/ml to 1 μg/ml",proliferate
